Data: publication PMC6451005, “PCC0208027, a novel tyrosine kinase inhibitor, inhibits tumor growth of NSCLC by targeting EGFR and HER2 aberrations” (Scientific Reports, 2019)
Marks after values point to notes of the source that are not given here.

Assays:
[1] = biological target: EGFR T790M (Homo sapiens, UniProt P00533, T790M); assay: In vitro kinase assay
Protocol: (§4) Various enzymes and biotin-labeled substrates were added to the test plates and incubated at room temperature for 15 minutes. Following that, ATP and the test compound was added, mixed, and incubated with the test plates. After completion of the reaction, the detection reagent is added to every well and incubated for 60 minutes before detection. Envision (PerkinElmer Inc.) was used to analyze the test plates and calculate the IC50 values. The IDBS XL fit module was used as the analysis module.

[2] = tested on: NCI-H1975 cells; assay: Cell growth inhibition assay (MTT); format: cell-based; conditions: Homo sapiens; NCI-H1975, EGFR (L858R/T790M); MTT, 72 h; mean ± s.d. (n = 3); read-out: IC50 cell viability
Protocol: (§1) Human NSCLC cells NCI-H1975, HCC827, Calu-3 and A549were obtained from the Cell Culture Center of the Institute of Basic Medical Sciences, Chinese Academy of Medical Sciences. NCI-H1781 cell line was purchased from Cobioer Biosciences Co., Ltd. With the exception of Calu-3, all cell lines were cultured in RPMI-1640 medium (Gibco, USA) supplemented with 10% fetal bovine serum (FBS) (Gibco, USA). Calu-3 was maintained in Minimum Essential Medium (MEM) supplemented with 10% FBS (Gibco, USA), 5% 100 mM Sodium Pyruvate (Gibco, USA), and 5% Non-Essential Amino Acids Solution (NEAA; Gibco, USA). All cells were incubated at 37 °C with 5% CO2 in air.
(§2) According to the previous report, 5 × 10^3 cells/100 μL were seeded in culture medium in every well in a 96-well plate for 24 hours. […] After 72 h of treatment, MTT (Beyotime Biotechnology, China) was added at a final concentration of […] and incubated for 3 hours. Following that, DMSO was used to dissolve the formazan product and the Molecular Devices SpectraMax M5 microplate reader (Molecular Devices, USA) was used to measure absorbance at 570 nm and IC50 was calculated.

[3] = tested on: Calu-3 cells; assay: Cell growth inhibition assay (MTT); format: cell-based; conditions: Homo sapiens; Calu-3, HER-2 (WT, amplified); MTT, 72 h; mean ± s.d. (n = 3); read-out: IC50 cell viability
Protocol: as §1, §2

[4] = tested on: NCI-H1781 cells; assay: Cell growth inhibition assay (MTT); format: cell-based; conditions: Homo sapiens; NCI-H1781, HER-2 (G776V, Cins); MTT, 72 h; mean ± s.d. (n = 3); read-out: IC50 cell viability
Protocol: as §1, §2

[5] = biological target: EGFR Wild Type (Homo sapiens, UniProt P00533); assay: In vitro kinase assay
Protocol: as §4

[6] = tested on: HER2 phosphorylation in Calu-3 cells; assay: Western blot assay; format: cell-based, Human; conditions: 24 h, Western blotting
Protocol: (§3) After centrifugation at 12000 g for 15 minutes, the supernatant was collected. The BCA reagent kit (Beyotime Biotechnology) was used to measure protein content. The cell extracts (50 μg protein) were loaded onto a 4–20% ExpressPlus™ PAGE pre-cast gel (GenScript, China) for electrophoresis before transferring to a PVDF membrane. The membranes were blocked with 5% skimmed milk (prepared using Tris-buffered saline containing 0.05% Tween-20) before incubation with primary antibodies at 4 °C overnight. The membranes were then incubated with HRP-conjugated secondary antibodies at room temperature. The Alphaview SA system and software (version 3.4.0, ProteinSimple, USA) was used for quantitative analysis of the optical density of the bands.

[7] = biological target: T1, Her4 Wild Type (Homo sapiens, UniProt Q15303); assay: In vitro kinase assay; format: biochemical; conditions: WT; n = 2
T1 construct: purchased Invitrogen (Shanghai) Co., Ltd

[8] = tested on: EGFR phosphorylation in A431 cells; assay: Western blot assay; format: cell-based; conditions: A431 cells with EGFR WT, 24 h, Western blotting
Protocol: as §3

[9] = tested on: HCC827 xenograft; assay: Nude mouse xenograft model; conditions: for Body weight (g) Begin / IR (%) inhibition rate of tumor growth (tumor weight) / Body weight (g) End: HCC827 xenograft; for IR (%) inhibition rate of tumor growth (tumor weight): 15 days
Protocol: (§5) HCC827, NCI-H1975, and Calu-3 cells were resuspended in serum-free culture medium and mixed in a 1:1 ratio with Matrigel (BD Biosciences, USA) before subcutaneous injection at the right scapula of each animal (4 × 10^6 cells/mouse). The mice were randomized into groups when the average tumor volume reached 100–200 mm^3. […] The inhibition rate (IR) of tumor growth was calculated using the following equation: IR (%) = (A − B)/A × 100, where A and B are the mean tumor weights of the vehicle control and treatment groups, respectively.

[10] = tested on: Calu-3 xenograft; assay: Nude mouse xenograft model; conditions: for Body weight (g) Begin / IR (%) inhibition rate of tumor growth (tumor weight) / Body weight (g) End: Calu-3 xenograft; for IR (%) inhibition rate of tumor growth (tumor weight): 15 days
Protocol: as §5

[11] = biological target: EGFR d746–750/T790M (Homo sapiens, UniProt P00533, DEL746-750/T790M); assay: In vitro kinase assay
Protocol: as §4

[12] = tested on: HCC827 cells; assay: Cell growth inhibition assay (MTT); format: cell-based; conditions: Homo sapiens; HCC827, EGFR (Del E746_A750); MTT, 72 h; mean ± s.d. (n = 3); read-out: IC50 cell viability
Protocol: Human NSCLC cells NCI-H1975, HCC827, Calu-3 and A549were obtained from the Cell Culture Center of the Institute of Basic Medical Sciences, Chinese Academy of Medical Sciences. […] Calu-3 was maintained in Minimum Essential Medium (MEM) supplemented with 10% FBS (Gibco, USA), 5% 100 mM Sodium Pyruvate (Gibco, USA), and 5% Non-Essential Amino Acids Solution (NEAA; Gibco, USA). All cells were incubated at 37 °C with 5% CO2 in air.
According to the previous report[29], 5 × 10^3 cells/100 μL were seeded in culture medium in every well in a 96-well plate for 24 hours. […] After 72 h of treatment, MTT (Beyotime Biotechnology, China) was added at a final concentration of 5 mg/ml and incubated for 3 hours. Following that, DMSO was used to dissolve the formazan product and the Molecular Devices SpectraMax M5 microplate reader (Molecular Devices, USA) was used to measure absorbance at 570 nm and IC50 was calculated.

[13] = biological target: EGFR L858R/T790M (Homo sapiens, UniProt P00533, L858R/T790M); assay: In vitro kinase assay
Protocol: as §4

[14] = tested on: NCI-H1975 xenograft; assay: Nude mouse xenograft model; conditions: for Body weight (g) Begin / IR (%) inhibition rate of tumor growth (tumor weight) / Body weight (g) End: NCI-H1975 xenograft; for IR (%) inhibition rate of tumor growth (tumor weight): 15 days
Protocol: as §5

[15] = tested on: HCC827 cells; assay: Western blot assay; format: cell-based, Human; conditions: 24 h
Protocol: as §3, with “The” for “After centrifugation at 12000 g for 15 minutes, the supernatant was collected. The”

[16] = tested on: NCI-H1975 cells; assay: Western blot assay; format: cell-based, Human; conditions: 24 h
Protocol: as §3, with “The” for “After centrifugation at 12000 g for 15 minutes, the supernatant was collected. The”

[17] = tested on: A549 cells; assay: Cell growth inhibition assay (MTT); format: cell-based, Human; conditions: for IC50: Homo sapiens, A549, K-ras mutation (G12S), MTT, 72 h, mean ± s.d. (n = 3), read-out: IC50 cell viability
Protocol: as §1, §2

[18] = biological target: EGFR L858R (Homo sapiens, UniProt P00533, L858R); assay: In vitro kinase assay
Protocol: as §4

[19] = biological target: T2, Her2 Wild Type (Homo sapiens, UniProt P04626); assay: In vitro kinase assay; format: biochemical; conditions: WT; n = 2
T2 construct: purchased Invitrogen (Shanghai) Co., Ltd
T2 sequence (P04626 23-1255): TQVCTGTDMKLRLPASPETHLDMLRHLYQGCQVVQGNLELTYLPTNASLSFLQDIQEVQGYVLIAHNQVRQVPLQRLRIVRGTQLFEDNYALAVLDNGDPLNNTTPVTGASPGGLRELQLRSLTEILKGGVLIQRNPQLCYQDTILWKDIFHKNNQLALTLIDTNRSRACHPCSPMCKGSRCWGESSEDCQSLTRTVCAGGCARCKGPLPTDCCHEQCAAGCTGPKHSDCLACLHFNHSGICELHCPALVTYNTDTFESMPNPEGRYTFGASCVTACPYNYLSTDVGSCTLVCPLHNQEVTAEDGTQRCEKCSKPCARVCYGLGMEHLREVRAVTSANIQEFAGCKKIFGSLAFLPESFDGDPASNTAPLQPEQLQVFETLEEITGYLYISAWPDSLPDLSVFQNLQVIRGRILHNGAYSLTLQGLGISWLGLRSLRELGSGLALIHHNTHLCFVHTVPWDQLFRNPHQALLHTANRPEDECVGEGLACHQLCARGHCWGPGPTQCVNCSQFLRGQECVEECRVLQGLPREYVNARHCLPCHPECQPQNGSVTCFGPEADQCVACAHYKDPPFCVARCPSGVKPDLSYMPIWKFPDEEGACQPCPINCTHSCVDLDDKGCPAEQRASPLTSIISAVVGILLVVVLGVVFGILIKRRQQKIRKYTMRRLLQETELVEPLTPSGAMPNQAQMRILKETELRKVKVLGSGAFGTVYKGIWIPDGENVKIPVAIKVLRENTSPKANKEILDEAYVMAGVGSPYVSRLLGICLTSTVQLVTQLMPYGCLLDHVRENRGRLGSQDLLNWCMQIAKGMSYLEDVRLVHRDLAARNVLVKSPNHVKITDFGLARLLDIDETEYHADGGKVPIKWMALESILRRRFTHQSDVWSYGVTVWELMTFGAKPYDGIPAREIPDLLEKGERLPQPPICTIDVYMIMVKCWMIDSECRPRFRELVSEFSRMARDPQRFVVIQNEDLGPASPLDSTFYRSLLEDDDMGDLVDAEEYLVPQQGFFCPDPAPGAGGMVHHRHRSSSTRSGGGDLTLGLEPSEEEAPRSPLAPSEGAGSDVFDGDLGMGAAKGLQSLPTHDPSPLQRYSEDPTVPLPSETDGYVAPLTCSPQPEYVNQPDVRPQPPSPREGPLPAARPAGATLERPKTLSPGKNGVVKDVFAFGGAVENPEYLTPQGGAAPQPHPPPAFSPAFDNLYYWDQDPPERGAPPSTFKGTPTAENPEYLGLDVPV

T1 sequence (Q15303 26-1308): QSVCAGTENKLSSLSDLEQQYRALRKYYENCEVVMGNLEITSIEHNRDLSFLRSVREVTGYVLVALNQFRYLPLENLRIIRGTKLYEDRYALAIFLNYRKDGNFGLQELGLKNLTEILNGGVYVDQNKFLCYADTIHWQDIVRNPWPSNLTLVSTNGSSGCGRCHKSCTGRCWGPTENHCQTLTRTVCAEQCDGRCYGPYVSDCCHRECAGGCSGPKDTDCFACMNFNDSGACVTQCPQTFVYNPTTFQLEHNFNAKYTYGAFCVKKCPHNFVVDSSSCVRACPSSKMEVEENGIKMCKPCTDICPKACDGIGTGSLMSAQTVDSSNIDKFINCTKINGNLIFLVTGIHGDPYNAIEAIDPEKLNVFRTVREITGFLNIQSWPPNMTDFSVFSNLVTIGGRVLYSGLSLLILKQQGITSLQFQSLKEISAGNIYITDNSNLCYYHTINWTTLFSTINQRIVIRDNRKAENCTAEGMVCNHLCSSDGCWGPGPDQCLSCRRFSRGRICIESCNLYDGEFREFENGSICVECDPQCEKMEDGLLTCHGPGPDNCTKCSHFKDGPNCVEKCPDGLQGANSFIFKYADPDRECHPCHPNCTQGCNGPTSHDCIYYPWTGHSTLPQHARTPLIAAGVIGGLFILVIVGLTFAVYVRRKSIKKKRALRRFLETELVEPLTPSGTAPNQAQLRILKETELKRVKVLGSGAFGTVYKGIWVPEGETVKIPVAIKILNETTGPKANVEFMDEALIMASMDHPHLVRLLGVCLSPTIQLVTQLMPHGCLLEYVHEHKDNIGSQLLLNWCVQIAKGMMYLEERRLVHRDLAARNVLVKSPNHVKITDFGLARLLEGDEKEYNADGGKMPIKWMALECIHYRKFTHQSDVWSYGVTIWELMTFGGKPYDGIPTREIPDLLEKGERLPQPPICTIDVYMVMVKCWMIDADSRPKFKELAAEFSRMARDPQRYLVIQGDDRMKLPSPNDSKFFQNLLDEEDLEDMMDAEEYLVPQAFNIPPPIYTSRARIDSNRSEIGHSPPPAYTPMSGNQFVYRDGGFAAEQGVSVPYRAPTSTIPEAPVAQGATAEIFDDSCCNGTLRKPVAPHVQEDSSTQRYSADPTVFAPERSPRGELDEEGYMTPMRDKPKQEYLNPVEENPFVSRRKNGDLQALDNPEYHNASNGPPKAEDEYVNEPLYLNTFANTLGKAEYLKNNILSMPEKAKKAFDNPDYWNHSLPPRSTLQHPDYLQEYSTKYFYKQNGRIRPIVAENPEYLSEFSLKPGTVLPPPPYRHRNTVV
Chain of EGFR T790M (P00533 25-1210 T790M): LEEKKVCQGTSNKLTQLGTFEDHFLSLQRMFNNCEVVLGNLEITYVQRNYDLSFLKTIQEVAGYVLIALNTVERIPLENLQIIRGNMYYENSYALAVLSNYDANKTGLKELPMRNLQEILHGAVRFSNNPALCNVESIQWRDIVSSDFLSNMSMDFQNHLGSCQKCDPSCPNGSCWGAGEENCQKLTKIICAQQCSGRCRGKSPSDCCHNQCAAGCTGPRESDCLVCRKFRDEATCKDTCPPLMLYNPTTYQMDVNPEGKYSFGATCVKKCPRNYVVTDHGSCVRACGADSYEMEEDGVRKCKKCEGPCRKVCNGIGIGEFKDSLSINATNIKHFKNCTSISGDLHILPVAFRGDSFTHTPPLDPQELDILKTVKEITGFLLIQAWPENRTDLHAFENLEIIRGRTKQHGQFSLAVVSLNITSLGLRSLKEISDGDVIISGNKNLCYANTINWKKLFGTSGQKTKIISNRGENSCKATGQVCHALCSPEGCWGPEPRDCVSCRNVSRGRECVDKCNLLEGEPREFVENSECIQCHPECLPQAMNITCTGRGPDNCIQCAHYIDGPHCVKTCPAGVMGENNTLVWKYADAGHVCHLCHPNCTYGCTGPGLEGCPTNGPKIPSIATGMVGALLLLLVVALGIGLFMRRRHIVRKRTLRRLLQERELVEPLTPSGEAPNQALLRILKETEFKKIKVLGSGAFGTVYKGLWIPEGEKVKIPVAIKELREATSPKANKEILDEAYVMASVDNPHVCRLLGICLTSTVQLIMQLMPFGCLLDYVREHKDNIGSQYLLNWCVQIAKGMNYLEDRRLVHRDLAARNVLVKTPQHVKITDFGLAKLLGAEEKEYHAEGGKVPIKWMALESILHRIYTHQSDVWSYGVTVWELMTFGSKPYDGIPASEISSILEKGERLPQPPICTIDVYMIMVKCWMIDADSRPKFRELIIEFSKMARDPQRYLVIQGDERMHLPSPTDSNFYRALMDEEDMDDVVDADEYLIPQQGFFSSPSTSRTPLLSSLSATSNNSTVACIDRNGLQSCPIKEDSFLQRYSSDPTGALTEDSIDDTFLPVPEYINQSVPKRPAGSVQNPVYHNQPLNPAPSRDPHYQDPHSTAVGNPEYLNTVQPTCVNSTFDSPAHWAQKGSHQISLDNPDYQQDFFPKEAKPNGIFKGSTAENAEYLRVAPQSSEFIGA
Chain of EGFR d746–750/T790M (P00533 with tags, fused parts or gaps DEL746-750/T790M): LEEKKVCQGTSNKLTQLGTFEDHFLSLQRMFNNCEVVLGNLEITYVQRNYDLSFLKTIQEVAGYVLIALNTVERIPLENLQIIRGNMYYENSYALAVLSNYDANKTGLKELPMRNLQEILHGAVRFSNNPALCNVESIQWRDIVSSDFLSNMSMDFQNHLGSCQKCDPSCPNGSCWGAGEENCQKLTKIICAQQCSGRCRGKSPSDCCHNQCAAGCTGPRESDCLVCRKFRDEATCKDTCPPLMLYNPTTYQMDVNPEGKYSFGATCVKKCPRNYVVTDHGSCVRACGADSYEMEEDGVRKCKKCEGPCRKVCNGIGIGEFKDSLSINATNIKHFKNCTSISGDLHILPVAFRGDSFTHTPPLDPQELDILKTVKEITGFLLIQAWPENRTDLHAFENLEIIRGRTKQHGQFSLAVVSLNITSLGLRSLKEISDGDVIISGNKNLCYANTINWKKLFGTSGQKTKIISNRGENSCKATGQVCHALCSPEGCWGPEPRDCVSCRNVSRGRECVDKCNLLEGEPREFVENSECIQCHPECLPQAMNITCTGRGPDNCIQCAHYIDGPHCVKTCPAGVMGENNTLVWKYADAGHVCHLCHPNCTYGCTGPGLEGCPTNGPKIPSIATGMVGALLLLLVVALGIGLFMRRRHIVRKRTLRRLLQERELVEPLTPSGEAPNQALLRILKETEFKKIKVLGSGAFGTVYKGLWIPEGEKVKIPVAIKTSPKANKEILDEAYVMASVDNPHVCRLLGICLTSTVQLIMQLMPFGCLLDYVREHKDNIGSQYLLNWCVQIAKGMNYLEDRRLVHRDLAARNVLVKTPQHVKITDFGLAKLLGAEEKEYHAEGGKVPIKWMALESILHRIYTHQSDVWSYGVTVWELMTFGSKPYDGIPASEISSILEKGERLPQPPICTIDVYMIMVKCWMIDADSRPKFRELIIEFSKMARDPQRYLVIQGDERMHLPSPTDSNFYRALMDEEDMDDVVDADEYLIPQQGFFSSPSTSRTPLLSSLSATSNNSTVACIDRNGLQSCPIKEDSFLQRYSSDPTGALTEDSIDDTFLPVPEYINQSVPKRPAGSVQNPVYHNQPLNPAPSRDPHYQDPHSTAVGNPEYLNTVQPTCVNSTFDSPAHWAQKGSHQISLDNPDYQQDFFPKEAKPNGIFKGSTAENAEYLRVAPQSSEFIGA

C=CC(=O)N1CCC(Oc2cc3c(Nc4ccc(Cl)c(Cl)c4F)ncnc3cc2O)CC1 [PCC0208027]
IC50 [1]: 0.61 nM
IC50 [2]: 11.1 ± 4.39 nM
IC50 [3]: 6.07 ± 0.29 nM
IC50 [4]: 5.97 ± 1.37 nM
IC50 [5]: 0.077 nM
Phosphorylation level of HER2 [6]: inhibited obviously
IC50 [7]: 0.11 nM
phosphorylation of EGFR [8]: potential inhibitory activity
number of p-EGFR and Ki67 positive cells in tumor tissues ([9]; HCC827 xenograft model, IHC, vs control group): strongly decreased
Body weight (g) Begin ([9]; 1 mg/kg/day group): 17.67 ± 0.60 g
IR (%) inhibition rate of tumor growth (tumor weight) ([9]; 1 mg/kg/day oral): 81.24^*** %
Body weight (g) End ([9]; 1 mg/kg/day oral): 18.22 ± 0.91 g
Body weight (g) Begin ([9]; 2.5 mg/kg/day group): 17.63 ± 0.68 g
IR (%) inhibition rate of tumor growth (tumor weight) ([9]; 2.5 mg/kg/day oral, 2.5 mg/kg/day): 90.53%
IR (%) inhibition rate of tumor growth (tumor weight) ([9]; 2.5 mg/kg/day oral, listed as PCC, 2.5 mg/kg/day): 90.53^*** %
Body weight (g) End ([9]; 2.5 mg/kg/day oral): 17.92 ± 0.77 g
number of p-HER2 and Ki67 positive cells in tumor tissues ([10]; Calu-3 xenograft model, IHC, vs control group): significantly reduce
Body weight (g) Begin ([10]; 2.5 mg/kg/day group): 17.30 ± 0.37 g
IR (%) inhibition rate of tumor growth (tumor weight) ([10]; 2.5 mg/kg/day oral): 50.02^** %
Body weight (g) End ([10]; 2.5 mg/kg/day oral): 16.94 ± 0.44 g
Body weight (g) Begin ([10]; 5 mg/kg/day group): 17.62 ± 0.77 g
IR (%) inhibition rate of tumor growth (tumor weight) ([10]; 5 mg/kg/day oral): 80.07^*** %
Body weight (g) End ([10]; 5 mg/kg/day oral): 16.56 ± 0.59 g
IC50 [11]: 0.82 nM
IC50 [12]: 4.22 ± 0.51 nM
IC50 [13]: 0.94 nM
number of p-EGFR and Ki67 positive cells in tumor tissues ([14]; NCI-H1975 xenograft model, IHC): strongly decreased
decrease of body weight of animals ([14]; NCI-H1975 xenograft models): less than 10%
Body weight (g) Begin ([14]; 5 mg/kg/day group): 16.68 ± 0.57 g
IR (%) inhibition rate of tumor growth (tumor weight) ([14]; 5 mg/kg/day oral): 84.61^*** %
Body weight (g) End ([14]; 5 mg/kg/day oral): 15.70 ± 0.58 g
Body weight (g) Begin ([14]; 10 mg/kg/day group): 16.40 ± 0.58 g
IR (%) inhibition rate of tumor growth (tumor weight) ([14]; 10 mg/kg/day oral): 97.98^*** %
Body weight (g) End ([14]; 10 mg/kg/day oral): 15.07 ± 0.65 g
Phosphorylation of EGFR and its downstream AKT and ERK ([15]; Western blotting): inhibited
expression of CDK2, CDK4 and E2F ([15]; western blot): significantly decreased
EGFR signaling ([16]; Western blotting): inhibited
expression of CDK2, CDK4 and E2F ([16]; western blot): significantly decreased
anti-tumor activity (in words) ([17]; A549 cells with KRAS mutation): no anti-tumor activity
IC50 [17]: > 1000 nM
IC50 [18]: 0.0047 nM
IC50 [19]: 0.025 nM

C=CC(=O)N1CCC(Oc2cc3c(Nc4ccc(Cl)c(Cl)c4F)ncnc3cc2OC)CC1 [Poziotinib]
IC50 [2]: 8.78 ± 3.03 nM
IC50 [3]: 2.47 ± 0.52 nM
IC50 [4]: 6.17 ± 0.42 nM
IC50 [7]: 0.18 nM
Body weight (g) Begin ([9]; 1 mg/kg/day group): 17.55 ± 0.96 g
IR (%) inhibition rate of tumor growth (tumor weight) ([9]; 1 mg/kg/day oral): 93.25^*** %
Body weight (g) End ([9]; 1 mg/kg/day oral): 17.21 ± 0.90 g
Body weight (g) Begin ([10]; 2.5 mg/kg/day group): 17.72 ± 0.73 g
IR (%) inhibition rate of tumor growth (tumor weight) ([10]; 2.5 mg/kg/day oral): 77.16^*** %
Body weight (g) End ([10]; 2.5 mg/kg/day oral): 16.36 ± 0.92 g
IC50 [12]: 1.72 ± 0.32 nM
Body weight (g) Begin ([14]; 2.5 mg/kg/day group): 16.44 ± 0.69 g
IR (%) inhibition rate of tumor growth (tumor weight) ([14]; 2.5 mg/kg/day oral): 98.18^*** %
Body weight (g) End ([14]; 2.5 mg/kg/day oral): 14.62 ± 0.67 g
IC50 [17]: > 1000 nM
IC50 [19]: 0.07 nM
